Source: the NIST ThermoML archive (doi:10.1021/je901020a)
Where “and” joins values, the source holds several entries; their conditions need not be identical. Identical values can stand only once.

Key:
[1] = refractive index (Na D-line) (dimensionless); conditions: 101.33 kPa, Liquid, Standard Abbe refractometry
[2] = 101 kPa, Liquid; for speed of sound: Pulse-echo method
[3] = refractive index (Na D-line) (dimensionless); xn = mol fraction of the nth substance listed; conditions: 101 kPa, Liquid, Standard Abbe refractometry
[4] = xn = mol fraction of the nth substance listed; conditions: 101 kPa, Liquid; for speed of sound: Pulse-echo method

Cc1ccccc1C [1,2-dimethylbenzene]
Conditions	mass density, [2] [kg/m3]	refractive index, [1]	speed of sound, [2]
298.15 K	875.4	1.50262	1350 m/s
313.15 K	862.9	1.49466	1290 m/s and 1289 m/s

Cc1cc(C)cc(C)c1 [1,3,5-trimethylbenzene]
Conditions	mass density, [2] [kg/m3]	refractive index, [1]	speed of sound, [2] [m/s]
298.15 K	861.1	1.49693	1336
313.15 K	848.8	1.48923	1277

Cc1cccc(C)c1 [1,3-dimethylbenzene]
Conditions	mass density, [2] [kg/m3]	refractive index, [1]	speed of sound, [2] [m/s]
298.15 K	859.8	1.49466	1321
313.15 K	846.9	1.48653	1259

C1CCCC1 [cyclopentane] + Cc1cc(C)cc(C)c1
Conditions	mass density, [4] [kg/m3]	refractive index, [3]	speed of sound, [4] [m/s]
298.15 K, x1 = 0.0383	857.8	1.49446	1332
298.15 K, x1 = 0.0884	853.3	1.49105	1325
298.15 K, x1 = 0.1869	843.9	1.48398	1311
298.15 K, x1 = 0.2531	837.5	1.47925	1302
298.15 K, x1 = 0.3849	823.5	1.46883	1283
298.15 K, x1 = 0.4879	811.9	1.4596	1269
298.15 K, x1 = 0.5891	799.5	1.45045	1255
298.15 K, x1 = 0.6926	786	1.4403	1241
298.15 K, x1 = 0.7807	774	1.43111	1229
298.15 K, x1 = 0.8901	757.9	1.41728	1216
298.15 K, x1 = 0.9487	748.6	1.40994	1210
298.15 K, x1 = 1	740	1.40292	1204
313.15 K, x1 = 0.0414	845.1	1.48675	1271
313.15 K, x1 = 0.0948	840.2	1.48324	1263
313.15 K, x1 = 0.1986	830.2	1.47585	1248
313.15 K, x1 = 0.2985	819.9	1.46786	1232
313.15 K, x1 = 0.4078	807.7	1.45906	1216
313.15 K, x1 = 0.4703	800.3	1.45335	1206
313.15 K, x1 = 0.6043	783.5	1.4411	1186
313.15 K, x1 = 0.7006	770.4	1.4312	1171
313.15 K, x1 = 0.8048	755.4	1.42003	1155
313.15 K, x1 = 0.9074	739.7	1.40648	1140
313.15 K, x1 = 0.9595	731.4	1.40014	1134
313.15 K, x1 = 1	725	1.39456	1130

C1CCCC1 [cyclopentane] + Cc1ccc(C)cc1
Conditions	mass density, [4] [kg/m3]	refractive index, [3]	speed of sound, [4] [m/s]
298.15 K, x1 = 0.0462	852.5	1.49015	1305
298.15 K, x1 = 0.0885	848.7	1.48707	1300
298.15 K, x1 = 0.1848	839.6	1.48001	1289
298.15 K, x1 = 0.2886	829.3	1.47236	1277
298.15 K, x1 = 0.3869	818.8	1.46445	1266
298.15 K, x1 = 0.4744	809	1.45737	1256
298.15 K, x1 = 0.5886	795.1	1.44669	1244
298.15 K, x1 = 0.6913	782.2	1.4372	1233
298.15 K, x1 = 0.7923	768.9	1.42618	1223
298.15 K, x1 = 0.8935	755	1.41575	1213
298.15 K, x1 = 0.9471	747.4	1.40916	1208
298.15 K, x1 = 1	740	1.40292	1204
313.15 K, x1 = 0.0443	839.7	1.48224	1243
313.15 K, x1 = 0.0981	834.8	1.47862	1236
313.15 K, x1 = 0.2012	824.7	1.47117	1224
313.15 K, x1 = 0.2998	814.5	1.46343	1211
313.15 K, x1 = 0.3542	808.5	1.4589	1204
313.15 K, x1 = 0.4799	794.3	1.44816	1189
313.15 K, x1 = 0.6021	779.4	1.43702	1173
313.15 K, x1 = 0.703	766.4	1.42761	1161
313.15 K, x1 = 0.8072	752.3	1.41693	1149
313.15 K, x1 = 0.909	737.9	1.4057	1138
313.15 K, x1 = 0.9601	730.6	1.39936	1133
313.15 K, x1 = 1	725	1.39456	1130

C1CCCC1 [cyclopentane] + Cc1cccc(C)c1
Conditions	mass density, [4] [kg/m3]	refractive index, [3]	speed of sound, [4] [m/s]
298.15 K, x1 = 0.0391	856.1	1.49183	1315
298.15 K, x1 = 0.0908	851.1	1.48818	1308
298.15 K, x1 = 0.1894	841.2	1.48065	1296
298.15 K, x1 = 0.2859	831.2	1.47341	1284
298.15 K, x1 = 0.3868	820.1	1.46504	1272
298.15 K, x1 = 0.4808	809.2	1.45745	1260
298.15 K, x1 = 0.6394	789.8	1.44242	1241
298.15 K, x1 = 0.6923	782.9	1.43668	1235
298.15 K, x1 = 0.7909	769.7	1.42686	1224
298.15 K, x1 = 0.8952	755	1.41504	1214
298.15 K, x1 = 0.9514	746.9	1.40888	1208
298.15 K, x1 = 1	740	1.40292	1204
313.15 K, x1 = 0.0431	842.9	1.48387	1253
313.15 K, x1 = 0.0812	839.2	1.48096	1248
313.15 K, x1 = 0.1859	828.6	1.47303	1234
313.15 K, x1 = 0.2864	818	1.46521	1220
313.15 K, x1 = 0.3348	812.6	1.46128	1213
313.15 K, x1 = 0.4741	796.4	1.44893	1194
313.15 K, x1 = 0.5747	784.1	1.43989	1181
313.15 K, x1 = 0.6933	768.8	1.42834	1166
313.15 K, x1 = 0.7932	755.2	1.4181	1153
313.15 K, x1 = 0.8961	740.5	1.4067	1141
313.15 K, x1 = 0.9472	733	1.40122	1135
313.15 K, x1 = 1	725	1.39456	1130
